Columns and labels:
[1] = tested on: CASM3C system [coronary artery smooth muscle cells+(IL-1β, TNFα and IFNγ)]; experiment: BioMAP CASM3C system; assay type: cell-based, Human
Text: In this study LMW-DS was characterized by profiling in the BioMAP® Diversity PLUS panel. The BioMAP® panel consists of human primary cell-based systems designed to model different aspects of the human body in an in vitro format. The 12 systems in the BioMAP® Diversity PLUS panel (Table 32) allow test agent characterization in an unbiased way across a broad set of systems modeling various human disease states. The BioMA®P systems are constructed with one or more primary cell types from healthy human donors, with stimuli, such as cytokines or growth factors, added to capture relevant signaling networks that naturally occur in human tissue or pathological conditions. […]
Systems are derived from either single cell types or co-culture systems. […] Test agents prepared in either DMSO (small molecules; final concentration 0.1%) or PBS (biologics) are added at the indicated concentrations 1-hr before stimulation, and remain in culture for 24-hrs or as otherwise indicated (48-hrs, MyoF system; 72-hrs, BT system (soluble readouts); 168-hrs, BT system (secreted IgG)). […] Soluble factors from supernatants are quantified using either HTRF® detection, bead-based multiplex immunoassay or capture ELISA. Overt adverse effects of test agents on cell proliferation and viability (cytotoxicity) are detected by sulforhodamine B (SRB) staining, for adherent cells, and alamarBlue® reduction for cells in suspension. […]

human Schwann cells = experiment: PI staining (DNA content, cell cycle, cell numbers, apoptotic fraction), Acumen cytometry; assay type: cell-based; settings: 0.01 and 0.1 mg/ml
Procedure: (§1) The study aims were to evaluate the effect of LMW-DS on cell survival and expression of differentiation proteins in three cell types, cerebral cortical neurons, motor neurons and Schwann cells, using two concentrations 0.01 and 0.1 mg/ml of LMW-DS.
(§2) Neurons were cultured as 40,000 cells per well and Schwann cells 3,000 cells per. Cells were treated after 24 hours. The number of cells per well depended on the growth phenotype, proliferative capacity, etc.
Schwann cells growth medium was prepared by adding 10% of fetal bovine serum (FBS, PAA) to high-glucose DMEM and pre-warmed to 37° C. Cells were thawed in a 37° C. water bath for no longer than 2 min. […] Pellet was resuspended in 5 ml of medium and cells were counted with the Cellometer. […]
LMW-DS was prepared in the culture media of choice for each cell line and added to the respective wells in the doses 0.01 and 0.1 mg/ml. For cell survival assays cells were analyzed after 24 and 48 hours in eight identical wells/dose/time point. Differentiation and protein expression assay was analyzed after 48 hours, also in octuplicates. […]
(§3) The Acumen cytometer allows the direct cytometric analysis of attached cells without prior detachment. […] The protein content of the cells can also be directly measured and expressed as either ‘total protein content’ or ‘mean protein content’.

mouse cortical neurons = experiment: as above; assay type: cell-based; settings: 0.01 and 0.1 mg/ml
Procedure: as §1, §2
PNGM was prepared by adding PNGM Singlequots (Lonza) to PNBM medium and pre-warmed to 37° C. Cells were thawed in a 37° C. water bath for no longer than 2 min and gently transferred into a 15 ml tube. 5 ml of medium was gently added drop-wise. Cell suspension was mixed by inverting the tube carefully twice. Cells were counted with a Cellometer AUTO T4 (Nexcelom Bioscience). 40,000 cells per well were seeded in previously coated 96-well plates. Cells were incubated at 37° C. with 5% CO2. After at 2-hour incubation 80 μl of medium was removed and replaced with 80 μl of fresh medium and cells were allowed to settle for 24 hours before drug treatment.
LMW-DS was prepared in the culture media of choice for each cell line and added to the respective wells in the doses 0.01 and 0.1 mg/ml. For cell survival assays cells were analyzed after 24 and 48 hours in eight identical wells/dose/time point. Differentiation and protein expression assay was analyzed after 48 hours, also in octuplicates.
Cells were fixated in the wells. Propidium iodine was used for viability assay. For immunohistochemical analysis, neurons were stained with βIII-tubulin, which is a tubulin specific for neurons. Schwann cells were stained for Myelin Basic Protein (MBP). For the negative controls PBST (0.1% Triton-X-100 in PBS) was applied instead of primary antibodies.
as §3

With “low molecular weight dextran sulfate [LMW-DS]” the Decreased biomarker activity ([1]; CASM3C system) was “VCAM-1, MIG”, the “key inflammation biomarkers including MIG, VCAM, IP-10 and ITAC” value ([1]; all tested concentrations) was “decreased over all tested concentrations” and the “fraction of apoptotic cells” value (human Schwann cells) was “reduced”. For the same substance, the “number of cells in the G2/M phase (PI content)” value (human Schwann cells) was “appeared to increase the number of cells in the G2/M phase”, the cell numbers (mouse cortical neurons) was “significantly reduced” and the “fraction of apoptotic cells” value (mouse cortical neurons) was “increased slightly”. For the same substance, the “number of cells in the G2/M phase (PI content)” value (mouse cortical neurons; 24 and 48 h) was “appeared to increase the number of cells in the G2/M phase”.

— patent US11534457B2, “Use of dextran sulfate” (priority 2017, dated 2022)
